Source: PMC10951960, “CGP7930 - An allosteric modulator of GABABRs, GABAARs and inwardly-rectifying potassium channels” (Neuropharmacology, 2023)
Read-outs that look alike come from different tables or passages of the source.

How the values were obtained:
neuronal GABABRs = target: T1, neuronal GABABRs (Rattus norvegicus, UniProt O88871+Q9Z0U4); assay: baclofen-activated GIRK currents in hippocampal cultures, high external K+, whole-cell voltage clamp; format: cell-based; conditions: read-out: EC50 for CGP7930 potentiation of baclofen response
T1 construct: endogenous in cells; host or cells: cultured rat (E18 Sprague-Dawley) hippocampal neurons, 12-17 DIV
T1 sequence (Q9Z0U4 17-960 limits assumed): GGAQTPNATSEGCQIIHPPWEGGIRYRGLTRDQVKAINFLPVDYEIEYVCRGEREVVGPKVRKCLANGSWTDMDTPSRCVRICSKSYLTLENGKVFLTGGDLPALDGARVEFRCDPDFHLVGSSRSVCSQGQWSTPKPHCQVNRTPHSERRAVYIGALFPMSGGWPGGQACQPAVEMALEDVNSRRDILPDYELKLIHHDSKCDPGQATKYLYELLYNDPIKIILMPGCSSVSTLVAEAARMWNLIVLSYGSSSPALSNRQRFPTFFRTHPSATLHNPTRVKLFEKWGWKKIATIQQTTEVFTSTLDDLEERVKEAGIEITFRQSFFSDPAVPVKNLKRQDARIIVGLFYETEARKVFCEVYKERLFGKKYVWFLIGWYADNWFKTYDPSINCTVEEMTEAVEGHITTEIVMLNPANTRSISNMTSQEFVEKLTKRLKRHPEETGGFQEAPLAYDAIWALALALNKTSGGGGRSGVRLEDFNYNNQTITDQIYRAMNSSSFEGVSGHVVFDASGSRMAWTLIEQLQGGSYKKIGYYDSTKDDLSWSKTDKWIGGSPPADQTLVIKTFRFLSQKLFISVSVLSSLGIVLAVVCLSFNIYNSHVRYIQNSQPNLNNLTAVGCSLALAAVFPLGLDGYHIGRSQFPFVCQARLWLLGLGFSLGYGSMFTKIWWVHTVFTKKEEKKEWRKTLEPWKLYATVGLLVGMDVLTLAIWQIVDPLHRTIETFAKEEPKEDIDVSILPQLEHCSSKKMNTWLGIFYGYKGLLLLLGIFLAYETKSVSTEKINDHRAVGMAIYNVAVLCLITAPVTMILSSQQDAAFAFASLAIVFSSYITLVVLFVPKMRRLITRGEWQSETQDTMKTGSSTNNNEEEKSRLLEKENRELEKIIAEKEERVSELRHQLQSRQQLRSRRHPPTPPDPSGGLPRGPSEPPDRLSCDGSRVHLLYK
T1 sequence (O88871 41-940): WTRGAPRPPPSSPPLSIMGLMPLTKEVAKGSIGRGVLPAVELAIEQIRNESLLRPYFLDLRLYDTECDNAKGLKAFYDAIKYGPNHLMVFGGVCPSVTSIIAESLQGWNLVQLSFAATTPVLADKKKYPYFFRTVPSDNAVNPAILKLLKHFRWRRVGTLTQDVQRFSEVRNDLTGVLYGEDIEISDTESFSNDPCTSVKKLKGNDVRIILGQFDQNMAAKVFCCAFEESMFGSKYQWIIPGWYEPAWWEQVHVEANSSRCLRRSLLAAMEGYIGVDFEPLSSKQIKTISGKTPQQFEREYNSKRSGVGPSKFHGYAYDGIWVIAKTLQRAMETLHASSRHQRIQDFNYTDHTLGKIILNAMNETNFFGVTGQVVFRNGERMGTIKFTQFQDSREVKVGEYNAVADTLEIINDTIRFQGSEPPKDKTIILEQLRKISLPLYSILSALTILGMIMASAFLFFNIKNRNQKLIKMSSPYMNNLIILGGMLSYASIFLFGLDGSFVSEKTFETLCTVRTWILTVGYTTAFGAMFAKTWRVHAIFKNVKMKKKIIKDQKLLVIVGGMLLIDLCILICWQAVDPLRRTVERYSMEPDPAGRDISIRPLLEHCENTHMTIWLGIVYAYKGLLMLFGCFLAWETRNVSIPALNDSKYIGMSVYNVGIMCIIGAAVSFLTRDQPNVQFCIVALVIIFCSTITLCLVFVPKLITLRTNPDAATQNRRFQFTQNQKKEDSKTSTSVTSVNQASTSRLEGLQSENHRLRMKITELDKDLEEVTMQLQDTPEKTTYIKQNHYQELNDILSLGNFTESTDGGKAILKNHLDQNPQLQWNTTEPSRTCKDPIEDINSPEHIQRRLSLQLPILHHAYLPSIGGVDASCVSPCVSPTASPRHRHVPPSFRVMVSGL
Experimental: (§1) Briefly, single cells derived from dissected hippocampi were seeded onto glass coverslips coated with poly-D-lysine in a plating medium containing minimum essential media with 5% v/v heat-inactivated FCS, 5% v/v heat-inactivated horse serum, penicillin-G/streptomycin (100 U/100 μg/ml), 2 mM L-glutamine, and 20 mM glucose. Two hr after plating the media was changed to a Neurobasal-A based maintenance media supplemented with 1% v/v B-27, penicillin-G/streptomycin (100 U/100 μg/ml), 0.5% v/v Glutamax and 35 mM glucose.
Spontaneous inhibitory postsynaptic currents (sIPSCs) were recorded from cultured hippocampal neurons at 12–17 days in vitro (DIV). […] GABABR-activated K^+ currents in cultured neurons were recorded in the additional presence of 2 mM kynurenic acid and 20 μM picrotoxin.
Borosilicate glass electrodes (3–5 MΩ) were filled with a K^+-based internal solution for recording GIRK currents containing (mM): 120 KCl, 2 MgCl2, 11 EGTA, 30 KOH, 10 HEPES, 1 CaCl2, 1 GTP, 2 ATP, 14 creatine phosphate, pH 7.0. GABAAR currents and sIPSCs were recorded with a Cs-based internal solution containing (mM): 120 CsCl, 1 MgCl2, 11 EGTA, 30 KOH, 10 HEPES, 1 CaCl2, and 2 K2ATP; pH 7.2. […] Cells were held at −60 mV (sIPSCs) or −60/−70 mV (K^+ currents). Voltage clamp recordings were undertaken after optimising series resistance (Rs, <10 MΩ) and compensating for the whole-cell membrane capacitance. […]

α4β3δ GABAAR = target: T2, α4β3δ GABAAR (Mus musculus, UniProt P22933+P63080+Q9D6F4); assay: whole-cell currents of recombinant GABAA receptors in HEK-293 cells (α4β3δ); format: cell-based, murine
T2 construct: expressed in transfected cells; host or cells: HEK-293T
T2 sequence (Q9D6F4 36-552): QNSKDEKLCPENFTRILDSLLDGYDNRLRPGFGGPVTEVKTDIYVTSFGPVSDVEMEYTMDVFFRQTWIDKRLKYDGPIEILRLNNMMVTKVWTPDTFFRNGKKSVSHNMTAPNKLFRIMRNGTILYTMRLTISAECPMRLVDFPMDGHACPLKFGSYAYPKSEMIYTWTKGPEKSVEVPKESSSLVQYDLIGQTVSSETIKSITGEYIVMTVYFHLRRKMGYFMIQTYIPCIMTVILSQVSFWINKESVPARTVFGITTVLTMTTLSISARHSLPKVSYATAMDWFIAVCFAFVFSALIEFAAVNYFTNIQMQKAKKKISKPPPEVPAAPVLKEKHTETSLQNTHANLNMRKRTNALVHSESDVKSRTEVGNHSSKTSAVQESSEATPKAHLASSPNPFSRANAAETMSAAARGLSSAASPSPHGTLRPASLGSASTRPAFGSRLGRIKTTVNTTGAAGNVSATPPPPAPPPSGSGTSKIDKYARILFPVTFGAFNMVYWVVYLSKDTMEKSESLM
T2 sequence (P63080 26-473): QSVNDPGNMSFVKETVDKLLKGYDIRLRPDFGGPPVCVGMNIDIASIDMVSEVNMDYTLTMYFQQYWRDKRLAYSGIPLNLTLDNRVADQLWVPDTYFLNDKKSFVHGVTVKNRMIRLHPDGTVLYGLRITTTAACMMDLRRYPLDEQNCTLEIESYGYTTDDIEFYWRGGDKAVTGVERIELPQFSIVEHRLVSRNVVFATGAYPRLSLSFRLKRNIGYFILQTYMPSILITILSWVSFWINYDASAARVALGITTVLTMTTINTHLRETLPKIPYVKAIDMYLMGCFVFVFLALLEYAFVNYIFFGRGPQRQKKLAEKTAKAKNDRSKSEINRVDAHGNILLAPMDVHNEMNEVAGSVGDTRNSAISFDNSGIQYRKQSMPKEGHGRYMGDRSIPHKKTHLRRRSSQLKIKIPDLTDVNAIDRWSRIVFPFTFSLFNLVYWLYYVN
T2 sequence (P22933 17-449 limits assumed): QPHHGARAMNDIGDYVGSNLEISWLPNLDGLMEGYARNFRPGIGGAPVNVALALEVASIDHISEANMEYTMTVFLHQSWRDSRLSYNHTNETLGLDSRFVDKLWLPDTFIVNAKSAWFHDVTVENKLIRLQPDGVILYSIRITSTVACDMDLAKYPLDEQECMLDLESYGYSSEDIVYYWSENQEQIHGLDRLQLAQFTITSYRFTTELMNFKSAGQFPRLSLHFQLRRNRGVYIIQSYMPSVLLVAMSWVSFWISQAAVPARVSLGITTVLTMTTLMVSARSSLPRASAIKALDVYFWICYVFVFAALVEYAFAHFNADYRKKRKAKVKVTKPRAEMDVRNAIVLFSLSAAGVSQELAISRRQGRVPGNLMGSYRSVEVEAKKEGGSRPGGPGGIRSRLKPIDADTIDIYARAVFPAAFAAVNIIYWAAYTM
Experimental: CGP55845, and other drugs, were obtained from Merck (Sigma-Aldrich) unless otherwise stated.
All cell culture reagents were acquired from ThermoFisher unless otherwise stated. […] These cells are referred to as GIRK cells throughout the text and were transiently transfected with cDNAs for eGFP, GABAB R1a and R2 in a 1:1:5 ratio applied 1–2 h after cell plating.
(§2) Spontaneous inhibitory postsynaptic currents (sIPSCs) were recorded from cultured hippocampal neurons at 12–17 days in vitro (DIV). […] For recording K^+ currents in GIRK cells and neurons, the bath solution was switched to a high K^+ solution containing 25 mM KCl and reduced NaCl (120 mM), to shift the equilibrium potential for K^+ from approximately −90 to −47 mV, thus reversing the direction of K^+ current flux to net inward. GABABR-activated K^+ currents in cultured neurons were recorded in the additional presence of 2 mM kynurenic acid and 20 μM picrotoxin.
(§3) Borosilicate glass electrodes (3–5 MΩ) were filled with a K^+-based internal solution for recording GIRK currents containing (mM): 120 KCl, 2 MgCl2, 11 EGTA, 30 KOH, 10 HEPES, 1 CaCl2, 1 GTP, 2 ATP, 14 creatine phosphate, pH 7.0. GABAAR currents and sIPSCs were recorded with a Cs-based internal solution containing (mM): 120 CsCl, 1 MgCl2, 11 EGTA, 30 KOH, 10 HEPES, 1 CaCl2, and 2 K2ATP; pH 7.2. […] Cells were held at −60 mV (sIPSCs) or −60/−70 mV (K^+ currents). Voltage clamp recordings were undertaken after optimising series resistance (Rs, <10 MΩ) and compensating for the whole-cell membrane capacitance. Membrane currents were filtered at 5 kHz (−3 dB, 6th pole Bessel, 36 dB/octave) and stored for analysis with Clampex 10.
Concentration-response curves were generated by measuring the current (I) for each ligand concentration and normalising to the maximal current response (Imax).
We explored the ability of CGP7930 to modulate different recombinant GABAARs expressed in HEK-293 cells to avoid confounds arising from heterogeneous receptor subtypes in neurons.

[1] = tested on: GABAAR-mediated sIPSCs in hippocampal neurons; assay: phasic inhibition: sIPSCs in cultured hippocampal neurons in the presence of CGP55845 (1 μM); format: cell-based, rat; conditions: mean ± SEM
Experimental: as §1, §2, §3
sIPSCs were recorded at room temperature (20–23 °C) and detected using WinEDR and WinWCP (Strathclyde Electrophysiology Software UK), and frequency was calculated for 60 s recording epochs. For sIPSC amplitudes, several hundred events were recorded per condition and analysed as an average amplitude per cell.
For kinetic analysis, individual uncontaminated sIPSCs were isolated and the average 10–90% rise time and exponential decay times were measured from the mean sIPSC waveform. Weighted decay times are reported encompassing mono- and bi-exponentially decaying events according to the equation:τw = (A1 *τ1 + A2 *τ2) / (A1 + A2)where τ1 and τ2 are exponential decay time constants, and A1 and A2 are the relative amplitude contributions of τ1 and τ2, respectively.

[2] = tested on: GABAAR-mediated tonic inhibition in hippocampal neurons; assay: tonic inhibition: baseline holding current and RMS noise in cultured hippocampal neurons; format: cell-based, rat
Experimental: as §1, §2, §3
For tonic inhibition, to determine the average holding currents, a 30 s continuous holding current recording was sampled every 1 s, discarding epochs that coincided with sIPSCs. Any effect of CGP7930 or bicuculline on the holding current was defined by subtracting the average holding currents in control and during drug application. The baseline root-mean-square current variance (RMS) was calculated before and during drug treatment. This was estimated from a continuous (20 s) current recording, sampled every 100 ms. The median current was calculated every 5 s and values more than twice the standard deviation from the median (usually due to IPSCs) were eliminated. All drugs were applied using a U-tube rapid drug application system, or more slowly via bath perfusion.
We assessed the effect of CGP7930 on tonic inhibition in hippocampal cultured neurons.

[3] = tested on: GABAARs in hippocampal neurons; assay: slow inward current directly activated by CGP7930 in hippocampal neurons in high K+ external solution and its block by GABAAR antagonists; format: cell-based, rat; conditions: hippocampal neurons, high external K+
Experimental: as §2
CGP7930 modulation at neuronal GABABRs was also characterised using baclofen-activated GIRK currents in hippocampal cultures similarly bathed in a high external K^+ concentration.

## CC(C)(CO)Cc1cc(C(C)(C)C)c(O)c(C(C)(C)C)c1 [CGP7930, 3-(3′,5′-Di-tert-butyl-4′-hydroxy) phenyl-2,2-dimethylpropanol]
Neuronal GABABRs
  EC50: 0.9 ± 0.6 µM
α4β3δ GABAAR
  IC50: 19.6 ± 13.1 µM
α4β3δ GABAAR; EC50 of GABA EC20 modulation curve, α4β3δ, ∼EC20 GABA, n = 7
  EC50: 1 ± 0.3 µM
α4β3δ GABAAR; α4β3δ (αβδ), read-out: EC50 for direct activation by CGP7930 alone
  EC50: 13.1 ± 1.4 µM
α4β3δ GABAAR; α4β3δ, CGP7930 alone
  threshold for direct activation: 1 to 3 µM
[1]; 100 nM
  sIPSC Amplitude: −70.0 ± 8.9 (7) pA
  sIPSC Decay τ (weighted decay time): 61.9 ± 7.2 (7) ms
  sIPSC Frequency: 3.28 ± 0.62 (8) Hz
  sIPSC Rise time (10–90%): 2.5 ± 0.20 (9) ms
[1]; 500 nM
  sIPSC Amplitude: −73.9 ± 8.8 (7) pA
  sIPSC Decay τ (weighted decay time): 100.8 ± 11 (7) ms
  sIPSC Frequency: 1.53 ± 0.32 (8) Hz
  sIPSC Rise time (10–90%): 3.2 ± 0.39 (9) ms
[1]; 1 μM
  sIPSC Amplitude: −124.6 ± 37.7 (7) pA
  sIPSC Decay τ (weighted decay time): 205.5 ± 117 (7) ms
  sIPSC Frequency: 0.38 ± 0.07 (8) Hz
  sIPSC Rise time (10–90%): 16.1 ± 5.2 (9) ms
[2]; 100 nM
  Membrane current RMS noise: 6.4 ± 0.4 (9) pA
[2]; 500 nM
  Membrane current RMS noise: 8.6 ± 0.9 (9) pA
[2]; 500 nM to 1 μM
  Tonic currents (change in baseline holding current): −441.6 ± 124.7 (9) pA
[2]; 1 μM
  Membrane current RMS noise: 12.7 ± 1.7 (9) pA
[2]; 1 μM + Bic (50 μM bicuculline)
  Membrane current RMS noise: 5.7 ± 0.5 (9) pA
[2]; 1 μM CGP7930 to 50 μM bicuculline (Bic)
  Tonic currents (change in baseline holding current): 372.0 ± 88.5 (9) pA
[2]; 100–500 nM
  Tonic currents (change in baseline holding current): −115.6 ± 37.8 (9) pA
[2]; Control to 100 nM
  Tonic currents (change in baseline holding current): −21.41 ± 5.4 (9) pA
[3]
  concentration at which pre-application caused a slow inward current: > 3 µM
